Laboratory results: patent US8519128B2, “Pyripyropene derivatives having an ACAT2-inhibiting activity” (The Kitasato Institute, priority 2007, dated 2013)

Target: T1, ACAT 2 (Mus musculus, UniProt O88908)
T1 construct: The source of ACAT 2 enzyme used was a membrane fraction derived from mouse liver microsome; from tissue; host or cells: mouse liver (microsome fraction)
T1 sequence (O88908 1-525): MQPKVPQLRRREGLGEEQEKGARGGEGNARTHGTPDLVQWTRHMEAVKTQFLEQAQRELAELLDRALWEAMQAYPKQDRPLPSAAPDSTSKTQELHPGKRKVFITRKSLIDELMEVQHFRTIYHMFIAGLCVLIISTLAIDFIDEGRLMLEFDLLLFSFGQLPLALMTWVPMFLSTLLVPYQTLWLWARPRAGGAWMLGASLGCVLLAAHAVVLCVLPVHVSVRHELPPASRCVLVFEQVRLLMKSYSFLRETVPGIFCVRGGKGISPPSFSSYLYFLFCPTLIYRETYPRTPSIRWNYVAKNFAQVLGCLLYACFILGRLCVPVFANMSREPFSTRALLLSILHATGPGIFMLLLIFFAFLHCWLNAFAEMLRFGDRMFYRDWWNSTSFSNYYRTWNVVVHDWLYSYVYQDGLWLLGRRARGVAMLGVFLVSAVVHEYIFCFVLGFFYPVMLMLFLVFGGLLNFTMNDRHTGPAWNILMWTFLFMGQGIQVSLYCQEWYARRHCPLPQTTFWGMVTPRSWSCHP
Test: ACAT-inhibiting activity, mouse liver microsome membrane fraction, [14C]oleoyl-CoA
Format: biochemical
Settings: for IC50: mouse liver microsome, 5 minutes at 37° C.; for Specific activity: (inhibitory activity of test compound)/(inhibitory activity of pyripyropene A): relative to pyripyropene A
Protocol: The source of ACAT 2 enzyme used was a membrane fraction derived from mouse liver microsome. Mouse liver was homogenized in buffer solution A (50 mM Tris-HCl (pH 7.8), 1 mM ethylenediamine tetraacetate, and 1 mM phenylmethanesulfonyl fluoride) using a homogenizer of the Potter type (Tokyo-RIKO). The homogenate was centrifuged at 12000×g, and the supernatant was ultracentrifuged at 100000×g. The sediment was taken as a microsome fraction, and this fraction was adjusted to have a protein concentration of 5 mg/ml using buffer solution A.
The chloroform layer was evaporated to dryness and was used to spot a thin layer chromatography plate (silica gel plate, Merck, 0.5 mm thickness). Elution for separation was carried out using a solvent of hexane/diethyl ether/acetic acid (70:30:1, v/v).

| SMILES | IC50 [nM] | Specific activity: (inhibitory activity of test compound)/(inhibitory activity of pyripyropene A) |
| --- | --- | --- |
| CC(=O)OCC1(C)C2C[C@H](OC(=O)c3ccc(O)cc3)[C@@]3(C)Oc4cc(-c5cccnc5)oc(=O)c4[C@H](O)C3[C@@]2(C)CC[C@@H]1OC(C)=O (stereo partly shown) [PRD 031, 7-p-hydroxybenzoyl-7-deacetylpyripyropene A] | 100 to 1000 | + (5 > specific activity > 1) |
| CC(=O)OCC1(C)C2C[C@H](OC(=O)c3ccc(N)cc3)[C@@]3(C)Oc4cc(-c5cccnc5)oc(=O)c4[C@H](O)C3[C@@]2(C)CC[C@@H]1OC(C)=O (stereo partly shown) [PRD 032, 7-p-aminobenzoyl-7-deacetylpyripyropene A] | 100 to 1000 | + (5 > specific activity > 1) |
| CC(=O)OCC1(C)C2C[C@H](OC(=O)c3ccc(-c4ccccc4)cc3)[C@@]3(C)Oc4cc(-c5cccnc5)oc(=O)c4[C@H](O)C3[C@@]2(C)CC[C@@H]1OC(C)=O (stereo partly shown) [PRD 034, 7-p-biphenyl-4-carboxyl-7-deacetylpyripyropene A] | 100 to 1000 | + (5 > specific activity > 1) |
| CC(=O)OCC1(C)C2C[C@H](OC(=O)c3cc4ccccc4s3)[C@@]3(C)Oc4cc(-c5cccnc5)oc(=O)c4[C@H](O)C3[C@@]2(C)CC[C@@H]1OC(C)=O (stereo partly shown) [PRD 035, 7-benzo[b]thiophene-2-carboxyl-7-deacetylpyripyropene A] | 100 to 1000 | + (5 > specific activity > 1) |
| CC(=O)OCC1(C)C2C[C@H](OC(=O)c3ccc4ccccc4c3)[C@@]3(C)Oc4cc(-c5cccnc5)oc(=O)c4[C@H](O)C3[C@@]2(C)CC[C@@H]1OC(C)=O (stereo partly shown) [PRD 037, 7-2-naphthoyl-7-deacetylpyripyropene A] | 100 to 1000 | + (5 > specific activity > 1) |
| CC12COC(c3ccccc3)O[C@H]1CC[C@@]1(C)C2C[C@H](OC(=O)c2ccccc2C#N)[C@@]2(C)Oc3cc(-c4cccnc4)oc(=O)c3[C@H](O)C12 (stereo partly shown) [PRD 039, 1,11-O-benzylidene-7-O-o-cyanobenzoyl-1,7,11-trideacetylpyripyropene A] | – | +++ (50 > specific activity > 10) |
| CC12COC(c3ccccc3)O[C@H]1CC[C@@]1(C)C2C[C@H](OC(=O)c2cccc(C#N)c2)[C@@]2(C)Oc3cc(-c4cccnc4)oc(=O)c3[C@H](O)C12 (stereo partly shown) [PRD 040, 1,11-O-benzylidene-7-O-m-cyanobenzoyl-1,7,11-trideacetylpyripyropene A] | 10 to 100 | +++ (50 > specific activity > 10) |
| COc1ccccc1C(=O)O[C@H]1CC2C3(C)COC(c4ccccc4)O[C@H]3CC[C@]2(C)C2[C@@H](O)c3c(cc(-c4cccnc4)oc3=O)O[C@@]21C (stereo partly shown) [PRD 042, 1,11-O-benzylidene-7-O-o-methoxybenzoyl-1,7,11-trideacetylpyripyropene A] | 10 to 100 | +++ (50 > specific activity > 10) |
| COc1cccc(C(=O)O[C@H]2CC3C4(C)COC(c5ccccc5)O[C@H]4CC[C@]3(C)C3[C@@H](O)c4c(cc(-c5cccnc5)oc4=O)O[C@@]32C)c1 (stereo partly shown) [PRD 043, 1,11-O-benzylidene-7-O-m-methoxybenzoyl-1,7,11-trideacetylpyripyropene A] | 10 to 100 | +++ (50 > specific activity > 10) |
| COc1ccc(C(=O)O[C@H]2CC3C4(C)COC(c5ccccc5)O[C@H]4CC[C@]3(C)C3[C@@H](O)c4c(cc(-c5cccnc5)oc4=O)O[C@@]32C)cc1 (stereo partly shown) [PRD 044, 1,11-O-benzylidene-7-O-p-methoxybenzoyl-1,7,11-trideacetylpyripyropene A] | 10 to 100 | +++ (50 > specific activity > 10) |
| CC12COC(c3ccccc3)O[C@H]1CC[C@@]1(C)C2C[C@H](OC(=O)c2ccc([N+](=O)[O-])cc2)[C@@]2(C)Oc3cc(-c4cccnc4)oc(=O)c3[C@H](O)C12 (stereo partly shown) [PRD 045, 1,11-O-benzylidene-7-O-p-nitrobenzoyl-1,7,11-trideacetylpyripyropene A] | 10 to 100 | ++ (10 > specific activity > 5) |
| CC12COC(c3ccccc3)O[C@H]1CC[C@@]1(C)C2C[C@H](OC(=O)c2ccccc2F)[C@@]2(C)Oc3cc(-c4cccnc4)oc(=O)c3[C@H](O)C12 (stereo partly shown) [PRD 046, 1,11-O-benzylidene-7-O-o-fluorobenzoyl-1,7,11-trideacetylpyripyropene A] | 10 to 100 | +++ (50 > specific activity > 10) |

Continued, values first:

| IC50 [nM] | Specific activity: (inhibitory activity of test compound)/(inhibitory activity of pyripyropene A) | SMILES |
| --- | --- | --- |
| < 10 | ++++ (100 > specific activity > 50) | CC(=O)OCC1(C)C2C[C@H](OC(=O)c3cccc(Br)c3)[C@@]3(C)Oc4cc(-c5cccnc5)oc(=O)c4[C@H](O)C3[C@@]2(C)CC[C@@H]1OC(C)=O (stereo partly shown) [PRD 026, 7-m-bromobenzoyl-7-deacetylpyripyropene A] |
| 10 to 100 | +++ (50 > specific activity > 10) | CC(=O)OCC1(C)C2C[C@H](OC(=O)c3ccccc3)[C@@]3(C)Oc4cc(-c5cccnc5)oc(=O)c4[C@H](O)C3[C@@]2(C)CC[C@@H]1OC(C)=O (stereo partly shown) [PRD 027, 7-benzoyl-7-deacetylpyripyropene A] |
| 10 to 100 | +++ (50 > specific activity > 10) | CC(=O)OCC1(C)C2C[C@H](OC(=O)c3ccccc3F)[C@@]3(C)Oc4cc(-c5cccnc5)oc(=O)c4[C@H](O)C3[C@@]2(C)CC[C@@H]1OC(C)=O (stereo partly shown) [PRD 028, 7-o-fluorobenzoyl-7-deacetylpyripyropene A] |
| 10 to 100 | + (5 > specific activity > 1) | CC(=O)OCC1(C)C2C[C@H](OC(=O)c3ccc([N+](=O)[O-])cc3)[C@@]3(C)Oc4cc(-c5cccnc5)oc(=O)c4[C@H](O)C3[C@@]2(C)CC[C@@H]1OC(C)=O (stereo partly shown) [PRD 029, 7-p-nitrobenzoyl-7-deacetylpyripyropene A] |
| 10 to 100 | ++ (10 > specific activity > 5) | CC(=O)OCC1(C)C2C[C@H](OC(=O)c3ccc(N=[N+]=[N-])cc3)[C@@]3(C)Oc4cc(-c5cccnc5)oc(=O)c4[C@H](O)C3[C@@]2(C)CC[C@@H]1OC(C)=O (stereo partly shown) [PRD 030, 7-O-p-azidebenzoyl-7-deacetylpyripyropene A] |
| 10 to 100 | ++ (10 > specific activity > 5) | CC(=O)OCC1(C)C2C[C@H](OC(=O)c3ccc4c(c3)OC(F)(F)O4)[C@@]3(C)Oc4cc(-c5cccnc5)oc(=O)c4[C@H](O)C3[C@@]2(C)CC[C@@H]1OC(C)=O (stereo partly shown) [PRD 036, 7-2,2-difluorobenzo[d][1,3]dioxol-5-carboxyl-7-deacetylpyripyropene A] |
| 10 to 100 | ++ (10 > specific activity > 5) | CC(=O)OCC1(C)C2C[C@H](OC(=O)c3cccc4ccccc34)[C@@]3(C)Oc4cc(-c5cccnc5)oc(=O)c4[C@H](O)C3[C@@]2(C)CC[C@@H]1OC(C)=O (stereo partly shown) [PRD 038, 7-1-naphthoyl-7-deacetylpyripyropene A] |
